Reference: the supplement of paper PMC10307832

Assays:
Experiment in all cases: relative viability (nuclei count vs DMSO), 5 days (fraction); higher = more cells survive
LCLC-103H = system: LCLC-103H
Summary of the method: (§1)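 Five library-drug doses in √10 steps were combined with a fixed anchor-drug dose, or a single drug was given alone, by pin tool to lung cancer cell lines in 1536-well plates the day after seeding. Nuclei were stained and counted after 5 days. Relative viability is the nuclei count in treated wells over that in vehicle wells, taken as the median of duplicate plates.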

LXF-289 = system: LXF-289
Summary of the method: as §1

NCI-H1355 = system: NCI-H1355
Summary of the method: as §1

NCI-H1651 = system: NCI-H1651
Summary of the method: as §1

NCI-H1755 = system: NCI-H1755
Summary of the method: as §1

NCI-H1792 = system: NCI-H1792
Summary of the method: as §1

NCI-H1915 = system: NCI-H1915
Summary of the method: as §1

NCI-H2347 = system: NCI-H2347
Summary of the method: as §1

NCI-H3122 = system: NCI-H3122
Summary of the method: as §1

NCI-H322M = system: NCI-H322M
Summary of the method: as §1

NCI-H441 = system: NCI-H441
Summary of the method: as §1

NCI-H460 = system: NCI-H460
Summary of the method: as §1

NCI-H520 = system: NCI-H520
Summary of the method: as §1

NCI-H522 = system: NCI-H522
Summary of the method: as §1

NCI-H661 = system: NCI-H661
Summary of the method: as §1

NCI-H727 = system: NCI-H727
Summary of the method: as §1

PC-14 = system: PC-14
Summary of the method: as §1

RERF-LC-KJ = system: RERF-LC-KJ
Summary of the method: as §1

SK-MES-1 = system: SK-MES-1
Summary of the method: as §1

SW 900 = system: SW 900
Summary of the method: as §1

`O=c1cc(-c2cccc3c2Sc2ccccc2S3)oc(N2CCOCC2)c1` + CC(=O)c1c(C)c2cnc(Nc3ccc(N4CCNCC4)cn3)nc2n(C2CCCC2)c1=O [Palbociclib] (partner 0.5 µM) gave a relative viability (LCLC-103H; first compound 0.08 µM) of 0.461, a relative viability (LCLC-103H; first compound 0.253 µM) of 0.51 and a relative viability (LCLC-103H; first compound 0.8 µM) of 0.477. It also gave a relative viability (LCLC-103H; first compound 2.53 µM) of 0.46, a relative viability (LCLC-103H; first compound 8 µM) of 0.448 and a relative viability (LXF-289; first compound 0.08 µM) of 0.61. For the same compound, the relative viability (LXF-289; first compound 0.253 µM) was 0.603, the relative viability (LXF-289; first compound 0.8 µM) was 0.609 and the relative viability (LXF-289; first compound 2.53 µM) was 0.619. It also gave a relative viability (LXF-289; first compound 8 µM) of 0.642, a relative viability (NCI-H1355; first compound 0.08 µM) of 0.396 and a relative viability (NCI-H1355; first compound 0.253 µM) of 0.428. It also gave a relative viability (NCI-H1355; first compound 0.8 µM) of 0.371, a relative viability (NCI-H1355; first compound 2.53 µM) of 0.401 and a relative viability (NCI-H1355; first compound 8 µM) of 0.264. For the same compound, the relative viability (NCI-H1651; first compound 0.08 µM) was 0.523, the relative viability (NCI-H1651; first compound 0.253 µM) was 0.537 and the relative viability (NCI-H1651; first compound 0.8 µM) was 0.524. For the same compound, the relative viability (NCI-H1651; first compound 2.53 µM) was 0.509, the relative viability (NCI-H1651; first compound 8 µM) was 0.537 and the relative viability (NCI-H1755; first compound 0.08 µM) was 0.436. It also gave a relative viability (NCI-H1755; first compound 0.253 µM) of 0.464, a relative viability (NCI-H1755; first compound 0.8 µM) of 0.463 and a relative viability (NCI-H1755; first compound 2.53 µM) of 0.383. The relative viability (NCI-H1755; first compound 8 µM) was 0.409, the relative viability (NCI-H1792; first compound 0.08 µM) was 0.673 and the relative viability (NCI-H1792; first compound 0.253 µM) was 0.847. For the same compound, the relative viability (NCI-H1792; first compound 0.8 µM) was 0.635, the relative viability (NCI-H1792; first compound 2.53 µM) was 0.654 and the relative viability (NCI-H1792; first compound 8 µM) was 0.688. It also gave a relative viability (NCI-H1915; first compound 0.08 µM) of 0.549, a relative viability (NCI-H1915; first compound 0.253 µM) of 0.527 and a relative viability (NCI-H1915; first compound 0.8 µM) of 0.541. It also gave a relative viability (NCI-H1915; first compound 2.53 µM) of 0.509, a relative viability (NCI-H1915; first compound 8 µM) of 0.497 and a relative viability (NCI-H2347; first compound 0.08 µM) of 0.42. The relative viability (NCI-H2347; first compound 0.253 µM) was 0.483, the relative viability (NCI-H2347; first compound 0.8 µM) was 0.453 and the relative viability (NCI-H2347; first compound 2.53 µM) was 0.39. It also gave a relative viability (NCI-H2347; first compound 8 µM) of 0.483, a relative viability (NCI-H3122; first compound 0.08 µM) of 0.169 and a relative viability (NCI-H3122; first compound 0.253 µM) of 0.2. It also gave a relative viability (NCI-H3122; first compound 0.8 µM) of 0.208, a relative viability (NCI-H3122; first compound 2.53 µM) of 0.188 and a relative viability (NCI-H3122; first compound 8 µM) of 0.192. It also gave a relative viability (NCI-H322M; first compound 0.08 µM) of 0.453, a relative viability (NCI-H322M; first compound 0.253 µM) of 0.474 and a relative viability (NCI-H322M; first compound 0.8 µM) of 0.502. It also gave a relative viability (NCI-H322M; first compound 2.53 µM) of 0.449, a relative viability (NCI-H322M; first compound 8 µM) of 0.475 and a relative viability (NCI-H441; first compound 0.08 µM) of 0.189. It also gave a relative viability (NCI-H441; first compound 0.253 µM) of 0.187, a relative viability (NCI-H441; first compound 0.8 µM) of 0.215 and a relative viability (NCI-H441; first compound 2.53 µM) of 0.203. For the same compound, the relative viability (NCI-H441; first compound 8 µM) was 0.18, the relative viability (NCI-H460; first compound 0.08 µM) was 0.0971 and the relative viability (NCI-H460; first compound 0.253 µM) was 0.159. For the same compound, the relative viability (NCI-H460; first compound 0.8 µM) was 0.13, the relative viability (NCI-H460; first compound 2.53 µM) was 0.154 and the relative viability (NCI-H460; first compound 8 µM) was 0.135. The relative viability (NCI-H520; first compound 0.08 µM) was 0.233, the relative viability (NCI-H520; first compound 0.253 µM) was 0.22 and the relative viability (NCI-H520; first compound 0.8 µM) was 0.21. The relative viability (NCI-H520; first compound 2.53 µM) was 0.243, the relative viability (NCI-H520; first compound 8 µM) was 0.231 and the relative viability (NCI-H522; first compound 0.08 µM) was 1.13. The relative viability (NCI-H522; first compound 0.253 µM) was 1.07, the relative viability (NCI-H522; first compound 0.8 µM) was 1.01 and the relative viability (NCI-H522; first compound 2.53 µM) was 1.04. It also gave a relative viability (NCI-H522; first compound 8 µM) of 1, a relative viability (NCI-H661; first compound 0.08 µM) of 0.416 and a relative viability (NCI-H661; first compound 0.253 µM) of 0.438. The relative viability (NCI-H661; first compound 0.8 µM) was 0.393, the relative viability (NCI-H661; first compound 2.53 µM) was 0.394 and the relative viability (NCI-H661; first compound 8 µM) was 0.379. For the same compound, the relative viability (NCI-H727; first compound 0.08 µM) was 0.613, the relative viability (NCI-H727; first compound 0.253 µM) was 0.813 and the relative viability (NCI-H727; first compound 2.53 µM) was 0.512. It also gave a relative viability (NCI-H727; first compound 8 µM) of 0.613, a relative viability (PC-14; first compound 0.08 µM) of 0.552 and a relative viability (PC-14; first compound 0.253 µM) of 0.746. For the same compound, the relative viability (PC-14; first compound 0.8 µM) was 0.578, the relative viability (PC-14; first compound 2.53 µM) was 0.46 and the relative viability (PC-14; first compound 8 µM) was 0.489. The relative viability (RERF-LC-KJ; first compound 0.08 µM) was 1.11, the relative viability (RERF-LC-KJ; first compound 0.253 µM) was 1.32 and the relative viability (RERF-LC-KJ; first compound 0.8 µM) was 1.08. For the same compound, the relative viability (RERF-LC-KJ; first compound 2.53 µM) was 1.04, the relative viability (RERF-LC-KJ; first compound 8 µM) was 0.971 and the relative viability (SK-MES-1; first compound 0.08 µM) was 0.311. It also gave a relative viability (SK-MES-1; first compound 0.253 µM) of 0.321, a relative viability (SK-MES-1; first compound 0.8 µM) of 0.313 and a relative viability (SK-MES-1; first compound 2.53 µM) of 0.294. For the same compound, the relative viability (SK-MES-1; first compound 8 µM) was 0.286, the relative viability (SW 900; first compound 0.253 µM) was 0.557 and the relative viability (SW 900; first compound 0.8 µM) was 0.555. For the same compound, the relative viability (SW 900; first compound 2.53 µM) was 0.492 and the relative viability (SW 900; first compound 8 µM) was 0.469.
